Test results as given in patent US20110015068A1, “Herbicidal Compositions Comprising Pyroxasulfone V” (BASF SE, priority 2008, published 2011).
Where two headings read alike, the source gives them in different places.

How the values were obtained:
Format in all cases: in vivo
Setaria italica [1] = test: pre-emergence greenhouse test, SETIT; conditions: Setaria italica, 25 g ai/ha, read-out: observed % activity
Text: (§1) For the pre-emergence treatment, directly after sowing the active compounds, which had been suspended or emulsified in water, were applied by means of finely distributed nozzles. The containers were irrigated gently to promote germination and growth and subsequently covered with transparent plastic hoods until plant had rooted. This cover caused uniform germination of the tests plants, unless this was adversely affected by active compounds.
(§2) The respective herbicides A and/or safener were formulated as 10% by weight strength suspension concentrate and introduced to the spray liquor with the amount of solvent system used for applying the active compound. Herbicide B and/or safener were used as commercially available formulations and introduced to the spray liquor with the amount of solvent system used for applying the active compound. In the examples, the solvent used was water.
(§3) The test period extended over 21 days. During this time, the plants were tended, and their response to the treatments with active compound was evaluated.
(§4) The evaluation for the damage caused by the chemical compositions was carried out using a scale from 0 to 100%, compared to the untreated control plants. Here, 0 means no damage and 100 means complete destruction of the plants.

Setaria faberii [2] = test: pre-emergence greenhouse test, SETFA; conditions: Setaria faberi, read-out: observed % activity; for inhibition at 25 g/ha: 25 g ai/ha; for inhibition at 50 g/ha: 50 g ai/ha
Text: as §1, §2, §3, §4

Setaria italica [3] = test: post-emergence greenhouse test, SETIT; conditions: Setaria italica, read-out: observed % activity; for inhibition at 50 g/ha: 50 g ai/ha; for inhibition at 100 g/ha: 100 g ai/ha
Text: (§5) For the post-emergence treatment, the test plants were first grown to a height of 3 to 20 cm, depending on the plant habit, and only then treated. Here, the herbicidal compositions were suspended or emulsified in water as distribution medium and sprayed using finely distributing nozzles.
as §2, §3, §4

Kochia scoparia = test: pre-emergence greenhouse test, KCHSC; conditions: Bassia scoparia, 25 g ai/ha, read-out: observed % activity
Text: as §1, §2, §3, §4

Digitaria sanguinalis = test: post-emergence greenhouse test, DIGSA; conditions: 20 DAT
Text: as §5, §2, §3, §4

Polygonum convolvulus = test: post-emergence greenhouse test, POLCO; conditions: for inhibition at 25 g/ha / inhibition at 50 g/ha / inhibition at 100 g/ha: Fallopia convolvulus, read-out: observed % activity; for inhibition at 25 g/ha: 25 g ai/ha; for inhibition at 50 g/ha: 50 g ai/ha; for inhibition at 100 g/ha: 100 g ai/ha
Text: as §5, §2, §3, §4

Solanum nigrum = test: post-emergence greenhouse test, SOLNI; conditions: Solanum nigrum, read-out: observed % activity; for inhibition at 13 g/ha: 13 g ai/ha; for inhibition at 100 g/ha: 100 g ai/ha
Text: as §5, §2, §3, §4

Sorghum halepense [4] = test: post-emergence greenhouse test, SORHA; conditions: Sorghum halepense, 50 g ai/ha, read-out: observed % activity
Text: as §5, §2, §3, §4

Chenopodium album [5] = test: pre-emergence greenhouse test, CHEAL; conditions: Chenopodium album, read-out: observed % activity; for inhibition at 25 g/ha: 25 g ai/ha; for inhibition at 50 g/ha: 50 g ai/ha
Text: as §1, §2, §3, §4

Echinochloa crus-galli = test: post-emergence greenhouse test, ECHCG; conditions: for inhibition at 13 g/ha: Echinochloa crus-galli, 13 g ai/ha, read-out: observed % activity
Text: as §5, §2, §3, §4

Alopecurus myosuroides = test: post-emergence greenhouse test, ALOMY; conditions: for observed activity in % destruction: Table 3; for inhibition at 13 g/ha / inhibition at 100 g/ha: Alopecurus myosuroides, read-out: observed % activity; for inhibition at 13 g/ha: 13 g ai/ha
Text: as §5, §2, §3, §4

Setaria faberii [6] = test: post-emergence greenhouse test, SETFA; conditions: 50 g ai/ha, 20 DAT
Text: as §5, §2, §3, §4

Lolium multiflorum = test: post-emergence greenhouse test, LOLMU; conditions: 20 DAT
Text: as §5, §2, §3, §4

Ipomoea purpurea = test: pre-emergence greenhouse test, PHBPU; conditions: Ipomoea purpurea, read-out: observed % activity; for inhibition at 25 g/ha: 25 g ai/ha; for inhibition at 50 g/ha: 50 g ai/ha
Text: as §1, §2, §3, §4

Galium aparine [7] = test: pre-emergence greenhouse test, GALAP; conditions: Galium aparine, read-out: observed % activity; for inhibition at 25 g/ha: 25 g ai/ha; for inhibition at 50 g/ha: 50 g ai/ha
Text: as §1, §2, §3, §4

Galium aparine [8] = test: post-emergence greenhouse test, GALAP; conditions: for inhibition at 25 g/ha / inhibition at 100 g/ha: Galium aparine, read-out: observed % activity; for inhibition at 25 g/ha: 25 g ai/ha; for inhibition at 100 g/ha: 100 g ai/ha
Text: as §5, §2, §3, §4

Setaria viridis = test: post-emergence greenhouse test, SETVI; conditions: 25 g ai/ha, 20 DAT, Table 3
Text: as §5, §2, §3, §4

Matricaria inermis = test: post-emergence greenhouse test, MATIN; conditions: 20 DAT
Text: as §5, §2, §3, §4

Chenopodium album [9] = test: post-emergence greenhouse test, CHEAL; conditions: for inhibition at 13 g/ha / inhibition at 50 g/ha: Chenopodium album, read-out: observed % activity; for inhibition at 13 g/ha: 13 g ai/ha; for inhibition at 50 g/ha: 50 g ai/ha
Text: as §5, §2, §3, §4

Sorghum halepense [10] = test: pre-emergence greenhouse test, SORHA; conditions: Sorghum halepense, 25 g ai/ha, read-out: observed % activity
Text: as §1, §2, §3, §4

Avena fatua = test: post-emergence greenhouse test, AVEFA; conditions: 50 g ai/ha, 20 DAT, Table 3
Text: as §5, §2, §3, §4

Bromus inermis = test: pre-emergence greenhouse test, BROIN; conditions: Bromus inermis, 25 g ai/ha, read-out: observed % activity
Text: as §1, §2, §3, §4

Cn1nc(C(F)(F)F)c(CS(=O)(=O)C2=NOC(C)(C)C2)c1OC(F)F [pyroxasulfone, 3-[5-(difluoromethoxy)-1-methyl-3-(trifluoromethyl)pyrazol-4-ylmethylsulfonyl]-4,5-dihydro-5,5-dimethyl-1,2-oxazole] showed an inhibition at 25 g/ha (Setaria italica [1]; 192 h, 8 DAT) of 75%, an inhibition at 25 g/ha (Setaria italica [1]; 480 h, 20 DAT) of 98% and an inhibition at 25 g/ha (Setaria faberii [2]; 192 h, 8 DAT) of 85%. It also gave an inhibition at 50 g/ha (Setaria faberii [2]; 192 h, 8 DAT) of 90%, an inhibition at 25 g/ha (Setaria faberii [2]; 480 h, 20 DAT) of 98% and an inhibition at 50 g/ha (Setaria faberii [2]; 480 h, 20 DAT) of 98%. It also gave an inhibition at 50 g/ha (Setaria italica [3]; 192 h, 8 DAT) of 25%, an inhibition at 100 g/ha (Setaria italica [3]; 192 h, 8 DAT) of 45% and an inhibition at 50 g/ha (Setaria italica [3]; 480 h, 20 DAT) of 75%. For the same compound, the inhibition at 100 g/ha (Setaria italica [3]; 480 h, 20 DAT) was 80%, the inhibition at 25 g/ha (Kochia scoparia; 192 h, 8 DAT) was 40% and the inhibition at 25 g/ha (Kochia scoparia; 480 h, 20 DAT) was 98%. For the same compound, the “observed activity in % destruction” value (Digitaria sanguinalis; 12.5 g ai/ha, Table 4) was 50%, the “observed activity in % destruction” value (Digitaria sanguinalis; 50 g ai/ha, Table 3) was 80% and the “observed activity in % destruction” value (Polygonum convolvulus; 12.5 g ai/ha, 20 DAT, Table 3) was 35%. It also gave an inhibition at 25 g/ha (Polygonum convolvulus; 192 h, 8 DAT) of 30%, an inhibition at 50 g/ha (Polygonum convolvulus; 192 h, 8 DAT) of 50% and an inhibition at 100 g/ha (Polygonum convolvulus; 192 h, 8 DAT) of 50%. It also gave an inhibition at 25 g/ha (Polygonum convolvulus; 480 h, 20 DAT) of 50%, an inhibition at 50 g/ha (Polygonum convolvulus; 480 h, 20 DAT) of 50% and an inhibition at 100 g/ha (Polygonum convolvulus; 480 h, 20 DAT) of 55%. For the same compound, the inhibition at 13 g/ha (Solanum nigrum; 192 h, 8 DAT) was 75%, the inhibition at 100 g/ha (Solanum nigrum; 192 h, 8 DAT) was 75% and the inhibition at 13 g/ha (Solanum nigrum; 480 h, 20 DAT) was 75%. For the same compound, the inhibition at 100 g/ha (Solanum nigrum; 480 h, 20 DAT) was 90%, the inhibition at 50 g/ha (Sorghum halepense [4]; 192 h, 8 DAT) was 65% and the inhibition at 50 g/ha (Sorghum halepense [4]; 480 h, 20 DAT) was 90%. The inhibition at 25 g/ha (Chenopodium album [5]; 192 h, 8 DAT) was 65%, the inhibition at 50 g/ha (Chenopodium album [5]; 192 h, 8 DAT) was 70% and the inhibition at 25 g/ha (Chenopodium album [5]; 480 h, 20 DAT) was 95%. The inhibition at 50 g/ha (Chenopodium album [5]; 480 h, 20 DAT) was 98%, the “observed activity in % destruction” value (Echinochloa crus-galli; 50 g ai/ha, 20 DAT, Table 3) was 80% and the inhibition at 13 g/ha (Echinochloa crus-galli; 192 h, 8 DAT) was 25%. For the same compound, the inhibition at 13 g/ha (Echinochloa crus-galli; 480 h, 20 DAT) was 80%, the “observed activity in % destruction” value (Alopecurus myosuroides; 50 g ai/ha, 20 DAT) was 55% and the “observed activity in % destruction” value (Alopecurus myosuroides; 100 g ai/ha, 20 DAT) was 80%. The inhibition at 13 g/ha (Alopecurus myosuroides; 192 h, 8 DAT) was 0%, the inhibition at 100 g/ha (Alopecurus myosuroides; 192 h, 100 g ai/ha, 8 DAT) was 40% and the inhibition at 13 g/ha (Alopecurus myosuroides; 480 h, 20 DAT) was 15%. For the same compound, the inhibition at 100 g/ha (Alopecurus myosuroides; 480 h, 100 g ai/ha, 20 DAT) was 75%, the “observed activity in % destruction” value (Setaria faberii [6]; Table 3) was 85% and the “observed activity in % destruction” value (Setaria faberii [6]; Table 4) was 85%. The “observed activity in % destruction” value (Lolium multiflorum; 12.5 g ai/ha, Table 3) was 55%, the “observed activity in % destruction” value (Lolium multiflorum; 25 g ai/ha, Table 3) was 55% and the “observed activity in % destruction” value (Lolium multiflorum; 50 g ai/ha, Table 4) was 55%. It also gave an inhibition at 25 g/ha (Ipomoea purpurea; 192 h, 8 DAT) of 40%, an inhibition at 50 g/ha (Ipomoea purpurea; 192 h, 8 DAT) of 65% and an inhibition at 25 g/ha (Ipomoea purpurea; 480 h, 20 DAT) of 50%. For the same compound, the inhibition at 50 g/ha (Ipomoea purpurea; 480 h, 20 DAT) was 90%, the inhibition at 25 g/ha (Galium aparine [7]; 192 h, 8 DAT) was 50% and the inhibition at 50 g/ha (Galium aparine [7]; 192 h, 8 DAT) was 70%. For the same compound, the inhibition at 25 g/ha (Galium aparine [7]; 480 h, 20 DAT) was 80%, the inhibition at 50 g/ha (Galium aparine [7]; 480 h, 20 DAT) was 90% and the “observed activity in % destruction” value (Galium aparine [8]; 12.5 g ai/ha, 20 DAT, Table 4) was 40%. It also gave an inhibition at 25 g/ha (Galium aparine [8]; 192 h, 8 DAT) of 60%, an inhibition at 100 g/ha (Galium aparine [8]; 192 h, 8 DAT) of 70% and an inhibition at 25 g/ha (Galium aparine [8]; 480 h, 20 DAT) of 85%. The inhibition at 100 g/ha (Galium aparine [8]; 480 h, 20 DAT) was 90%, the “observed activity in % destruction” value (Setaria viridis) was 75% and the “observed activity in % destruction” value (Matricaria inermis; 12.5 g ai/ha, Table 3) was 0%. The “observed activity in % destruction” value (Matricaria inermis; 25 g ai/ha, Table 3) was 0%, the “observed activity in % destruction” value (Matricaria inermis; 25 g ai/ha, Table 4) was 0% and the “observed activity in % destruction” value (Chenopodium album [9]; 12.5 g ai/ha, 20 DAT, Table 3) was 35%. For the same compound, the “observed activity in % destruction” value (Chenopodium album [9]; 25 g ai/ha, 20 DAT, Table 4) was 45%, the inhibition at 13 g/ha (Chenopodium album [9]; 192 h, 8 DAT) was 35% and the inhibition at 50 g/ha (Chenopodium album [9]; 192 h, 8 DAT) was 60%. It also gave an inhibition at 13 g/ha (Chenopodium album [9]; 480 h, 20 DAT) of 25%, an inhibition at 50 g/ha (Chenopodium album [9]; 480 h, 20 DAT) of 65% and an inhibition at 25 g/ha (Sorghum halepense [10]; 192 h, 8 DAT) of 75%. For the same compound, the inhibition at 25 g/ha (Sorghum halepense [10]; 480 h, 20 DAT) was 95%, the “observed activity in % destruction” value (Avena fatua) was 75% and the inhibition at 25 g/ha (Bromus inermis; 192 h, 8 DAT) was 60%. For the same compound, the inhibition at 25 g/ha (Bromus inermis; 480 h, 20 DAT) was 75%.
